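Each compound was tested at five concentrations against cells in 96-well plates for 48 hours. The concentration for 50% growth inhibition is given as GI50. TGI: total growth inhibition.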
Tests used:
Test in all cases: inhibition of tumour cell growth, NCI panel, 48 h
SNB-75 CNS = test system: SNB-75 CNS
BT-549 breast = test system: BT-549 breast
OVCAR-8 ovarian = test system: OVCAR-8 ovarian
UACC-257 melanoma = test system: UACC-257 melanoma
MCF7 breast = test system: MCF7 breast
UO-31 renal = test system: UO-31 renal
EKVX NSCLC = test system: EKVX NSCLC
SK-OV-3 ovarian = test system: SK-OV-3 ovarian
NCI-H522 lung = test system: NCI-H522 lung
SR leukemia = test system: SR leukemia
COLO 205 colon = test system: COLO 205 colon
NCI-H460 lung = test system: NCI-H460 lung
T-47D breast = test system: T-47D breast
SW-620 colon = test system: SW-620 colon
OVCAR-5 ovarian = test system: OVCAR-5 ovarian
IGROV1 ovarian = test system: IGROV1 ovarian
A549 NSCLC = test system: A549 NSCLC
SF-268 CNS = test system: SF-268 CNS
HT29 colon = test system: HT29 colon
MOLT-4 leukemia = test system: MOLT-4 leukemia
HCT-15 colon = test system: HCT-15 colon
ACHN renal = test system: ACHN renal
LOX IMVI melanoma = test system: LOX IMVI melanoma
MDA-MB-231 breast = test system: MDA-MB-231 breast
OVCAR-4 ovarian = test system: OVCAR-4 ovarian
HS 578T breast = test system: HS 578T breast
SF-295 CNS = test system: SF-295 CNS
OVCAR-3 ovarian = test system: OVCAR-3 ovarian
NCI-H226 lung = test system: NCI-H226 lung
HOP-62 NSCLC = test system: HOP-62 NSCLC
SN12C renal = test system: SN12C renal
SK-MEL-2 melanoma = test system: SK-MEL-2 melanoma
HOP-92 NSCLC = test system: HOP-92 NSCLC
PC-3 prostate = test system: PC-3 prostate
SNB-19 CNS = test system: SNB-19 CNS
UACC-62 melanoma = test system: UACC-62 melanoma
SK-MEL-5 melanoma = test system: SK-MEL-5 melanoma
M14 melanoma = test system: M14 melanoma
NCI/ADR-RES ovarian = test system: NCI/ADR-RES ovarian
MALME-3M melanoma = test system: MALME-3M melanoma
KM12 colon = test system: KM12 colon
U251 CNS = test system: U251 CNS
SF-539 CNS = test system: SF-539 CNS
HCC-2998 colon = test system: HCC-2998 colon
K-562 leukemia = test system: K-562 leukemia
HL-60(TB) leukemia = test system: HL-60(TB) leukemia
TK-10 renal = test system: TK-10 renal
HCT-116 colon = test system: HCT-116 colon
RPMI-8226 leukemia = test system: RPMI-8226 leukemia
RXF 393 renal = test system: RXF 393 renal
DU-145 prostate = test system: DU-145 prostate
A498 renal = test system: A498 renal
CAKI-1 renal = test system: CAKI-1 renal
MDA-MB-435 = test system: MDA-MB-435
CCRF-CEM leukemia = test system: CCRF-CEM leukemia
SK-MEL-28 melanoma = test system: SK-MEL-28 melanoma
NCI-H23 lung = test system: NCI-H23 lung
786-0 renal = test system: 786-0 renal

SMILES: O=S(=O)(O)Oc1cc2c(c(OS(=O)(=O)O)c1)C[C@H](OS(=O)(=O)O)[C@@H](c1ccc(OS(=O)(=O)O)c(OS(=O)(=O)O)c1)O2
- TGI (SNB-75 CNS): > 100000 nM
- TGI (BT-549 breast): > 100000 nM
- TGI (OVCAR-8 ovarian): > 100000 nM
- TGI (UACC-257 melanoma): > 100000 nM
- TGI (MCF7 breast): > 100000 nM
- TGI (UO-31 renal): > 100000 nM
- TGI (EKVX NSCLC): > 100000 nM
- TGI (SK-OV-3 ovarian): > 100000 nM
- TGI (NCI-H522 lung): > 100000 nM
- TGI (SR leukemia): > 100000 nM
- TGI (COLO 205 colon): > 100000 nM
- TGI (NCI-H460 lung): > 100000 nM
- TGI (T-47D breast): > 100000 nM
- TGI (SW-620 colon): > 100000 nM
- TGI (OVCAR-5 ovarian): > 100000 nM
- TGI (IGROV1 ovarian): > 100000 nM
- TGI (A549 NSCLC): > 100000 nM
- TGI (SF-268 CNS): > 100000 nM
- TGI (HT29 colon): > 100000 nM
- TGI (MOLT-4 leukemia): > 100000 nM
- TGI (HCT-15 colon): > 100000 nM
- TGI (ACHN renal): > 100000 nM
- TGI (LOX IMVI melanoma): > 100000 nM
- TGI (MDA-MB-231 breast): > 100000 nM
- TGI (OVCAR-4 ovarian): > 100000 nM
- TGI (HS 578T breast): > 100000 nM
- TGI (SF-295 CNS): > 100000 nM
- TGI (OVCAR-3 ovarian): > 100000 nM
- TGI (NCI-H226 lung): > 100000 nM
- TGI (HOP-62 NSCLC): > 100000 nM
- TGI (SN12C renal): > 100000 nM
- TGI (SK-MEL-2 melanoma): > 100000 nM
- TGI (HOP-92 NSCLC): > 100000 nM
- TGI (PC-3 prostate): > 100000 nM
- TGI (SNB-19 CNS): > 100000 nM
- TGI (UACC-62 melanoma): > 100000 nM
- TGI (SK-MEL-5 melanoma): > 100000 nM
- TGI (M14 melanoma): > 100000 nM
- TGI (NCI/ADR-RES ovarian): > 100000 nM
- TGI (MALME-3M melanoma): > 100000 nM

SMILES: O=C(C[P+](c1ccccc1)(c1ccccc1)c1ccccc1)C[P+](c1ccccc1)(c1ccccc1)c1ccccc1
- GI50 (SNB-75 CNS): 254 nM
- TGI (SNB-75 CNS): 1440 nM
- GI50 (BT-549 breast): 363 nM
- TGI (BT-549 breast): 1240 nM
- GI50 (OVCAR-8 ovarian): 318 nM
- TGI (OVCAR-8 ovarian): 2310 nM
- GI50 (UACC-257 melanoma): 416 nM
- TGI (UACC-257 melanoma): 1280 nM
- GI50 (MCF7 breast): 332 nM
- TGI (MCF7 breast): 1600 nM
- GI50 (UO-31 renal): 218 nM
- TGI (UO-31 renal): 855 nM
- GI50 (KM12 colon): 1130 nM
- TGI (KM12 colon): 2630 nM
- GI50 (SK-OV-3 ovarian): 1490 nM
- TGI (SK-OV-3 ovarian): 3170 nM
- GI50 (NCI-H522 lung): 141 nM
- TGI (NCI-H522 lung): 325 nM
- GI50 (SR leukemia): 310 nM
- TGI (SR leukemia): 3890 nM
- GI50 (COLO 205 colon): 398 nM
- TGI (COLO 205 colon): 1510 nM
- GI50 (U251 CNS): 828 nM
- TGI (U251 CNS): 2230 nM
- GI50 (SF-539 CNS): 286 nM
- TGI (SF-539 CNS): 1130 nM
- GI50 (NCI-H460 lung): 546 nM
- TGI (NCI-H460 lung): 2300 nM
- GI50 (HCC-2998 colon): 784 nM
- TGI (HCC-2998 colon): 2170 nM
- GI50 (SW-620 colon): 242 nM
- TGI (SW-620 colon): 816 nM
- GI50 (OVCAR-5 ovarian): 263 nM
- TGI (OVCAR-5 ovarian): 832 nM
- GI50 (K-562 leukemia): 306 nM
- TGI (K-562 leukemia): 7490 nM
- GI50 (IGROV1 ovarian): 774 nM
- TGI (IGROV1 ovarian): 2560 nM
- GI50 (A549 NSCLC): 810 nM
- TGI (A549 NSCLC): 3040 nM
- GI50 (SF-268 CNS): 591 nM
- TGI (SF-268 CNS): 1950 nM
- GI50 (HL-60(TB) leukemia): 256 nM
- TGI (HL-60(TB) leukemia): 2570 nM
- GI50 (TK-10 renal): 326 nM
- TGI (TK-10 renal): 1090 nM
- GI50 (HT29 colon): 285 nM
- TGI (HT29 colon): 734 nM
- GI50 (MOLT-4 leukemia): 292 nM
- TGI (MOLT-4 leukemia): 4080 nM
- GI50 (HCT-116 colon): 203 nM
- TGI (HCT-116 colon): 547 nM
- GI50 (HCT-15 colon): 241 nM
- TGI (HCT-15 colon): 1600 nM
- GI50 (RPMI-8226 leukemia): 271 nM
- TGI (RPMI-8226 leukemia): 1810 nM
- GI50 (ACHN renal): 144 nM
- TGI (ACHN renal): 393 nM
- GI50 (LOX IMVI melanoma): 235 nM
- TGI (LOX IMVI melanoma): 637 nM
- GI50 (MDA-MB-231 breast): 320 nM
- TGI (MDA-MB-231 breast): 1400 nM
- GI50 (OVCAR-4 ovarian): 135 nM
- TGI (OVCAR-4 ovarian): 269 nM
- GI50 (RXF 393 renal): 200 nM
- TGI (RXF 393 renal): 605 nM
- GI50 (HS 578T breast): 581 nM
- TGI (HS 578T breast): 4500 nM
- GI50 (SF-295 CNS): 1460 nM
- TGI (SF-295 CNS): 2980 nM
- GI50 (OVCAR-3 ovarian): 296 nM
- TGI (OVCAR-3 ovarian): 807 nM
- GI50 (NCI-H226 lung): 197 nM
- TGI (NCI-H226 lung): 612 nM
- GI50 (DU-145 prostate): 327 nM
- TGI (DU-145 prostate): 1300 nM
- GI50 (HOP-62 NSCLC): 1460 nM
- TGI (HOP-62 NSCLC): 2840 nM
- GI50 (SN12C renal): 682 nM
- TGI (SN12C renal): 2140 nM
- GI50 (SK-MEL-2 melanoma): 341 nM
- TGI (SK-MEL-2 melanoma): 1040 nM
- GI50 (HOP-92 NSCLC): 69.6 nM
- TGI (HOP-92 NSCLC): 294 nM
- GI50 (A498 renal): 223 nM
- TGI (A498 renal): 1020 nM
- GI50 (PC-3 prostate): 938 nM
- TGI (PC-3 prostate): 2510 nM
- GI50 (CAKI-1 renal): 161 nM
- TGI (CAKI-1 renal): 357 nM
- GI50 (MDA-MB-435): 233 nM
- TGI (MDA-MB-435): 666 nM
- GI50 (SNB-19 CNS): 1310 nM
- TGI (SNB-19 CNS): 2780 nM
- GI50 (CCRF-CEM leukemia): 229 nM
- TGI (CCRF-CEM leukemia): 1050 nM
- GI50 (UACC-62 melanoma): 256 nM
- TGI (UACC-62 melanoma): 865 nM
- GI50 (SK-MEL-28 melanoma): 332 nM
- TGI (SK-MEL-28 melanoma): 1290 nM
- GI50 (SK-MEL-5 melanoma): 625 nM
- TGI (SK-MEL-5 melanoma): 1800 nM
- GI50 (NCI-H23 lung): 253 nM
- TGI (NCI-H23 lung): 888 nM
- GI50 (M14 melanoma): 387 nM
- TGI (M14 melanoma): 1460 nM
- GI50 (786-0 renal): 496 nM
- TGI (786-0 renal): 1160 nM
- GI50 (NCI/ADR-RES ovarian): 383 nM
- TGI (NCI/ADR-RES ovarian): 11000 nM
- GI50 (MALME-3M melanoma): 335 nM
- TGI (MALME-3M melanoma): 1480 nM
